System: SEM cells
Test: cell viability relative to DMSO control; higher = less cytotoxic
Conditions: 48 h
Summary of the method: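 Before seeding, each leukemia line was adapted for at least four passages in each medium. NOMO1 or SEM cells (500 cells/well) and P12-Ichikawa cells (1000 cells/well) went into 1536-well plates at 5 μl, then received library compounds in DMSO by pin dosing across 11 threefold concentrations, 47 μM to 0.79 nM. Readout was CellTiter-Glo One luminescence after 48 h at 37°C, and viability is given as a per-plate percentage of DMSO wells, with cell-free wells as background.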

[1] = HPLM + 10% dialyzed FBS, 0.000781 µM
[2] = HPLM + 10% dialyzed FBS, 0.00234 µM
[3] = HPLM + 10% dialyzed FBS, 0.00702 µM
[4] = HPLM + 10% dialyzed FBS, 0.0211 µM
[5] = HPLM + 10% dialyzed FBS, 0.0632 µM
[6] = HPLM + 10% dialyzed FBS, 0.19 µM
[7] = HPLM + 10% dialyzed FBS, 0.569 µM
[8] = HPLM + 10% dialyzed FBS, 1.71 µM
[9] = HPLM + 10% dialyzed FBS, 5.12 µM
[10] = HPLM + 10% dialyzed FBS, 15.4 µM
[11] = HPLM + 10% dialyzed FBS, 46.1 µM
[12] = RPMI 5 mM glucose + 10% FBS, 0.000781 µM
[13] = RPMI 5 mM glucose + 10% FBS, 0.00234 µM
[14] = RPMI 5 mM glucose + 10% FBS, 0.00702 µM
[15] = RPMI 5 mM glucose + 10% FBS, 0.0211 µM
[16] = RPMI 5 mM glucose + 10% FBS, 0.0632 µM
[17] = RPMI 5 mM glucose + 10% FBS, 0.19 µM
[18] = RPMI 5 mM glucose + 10% FBS, 0.569 µM
[19] = RPMI 5 mM glucose + 10% FBS, 1.71 µM
[20] = RPMI 5 mM glucose + 10% FBS, 5.12 µM
[21] = RPMI 5 mM glucose + 10% FBS, 15.4 µM
[22] = RPMI 5 mM glucose + 10% FBS, 46.1 µM
[23] = RPMI 5 mM glucose + 10% dialyzed FBS, 0.000781 µM
[24] = RPMI 5 mM glucose + 10% dialyzed FBS, 0.00234 µM
[25] = RPMI 5 mM glucose + 10% dialyzed FBS, 0.00702 µM
[26] = RPMI 5 mM glucose + 10% dialyzed FBS, 0.0211 µM
[27] = RPMI 5 mM glucose + 10% dialyzed FBS, 0.0632 µM
[28] = RPMI 5 mM glucose + 10% dialyzed FBS, 0.19 µM
[29] = RPMI 5 mM glucose + 10% dialyzed FBS, 0.569 µM
[30] = RPMI 5 mM glucose + 10% dialyzed FBS, 1.71 µM
[31] = RPMI 5 mM glucose + 10% dialyzed FBS, 5.12 µM
[32] = RPMI 5 mM glucose + 10% dialyzed FBS, 15.4 µM
[33] = RPMI 5 mM glucose + 10% dialyzed FBS, 46.1 µM

Structure (SMILES)	cell viability [1] [%]	cell viability [2] [%]	cell viability [3] [%]	cell viability [4] [%]	cell viability [5] [%]	cell viability [6] [%]	cell viability [7] [%]	cell viability [8] [%]	cell viability [9] [%]	cell viability [10] [%]	cell viability [11] [%]	cell viability [12] [%]	cell viability [13] [%]	cell viability [14] [%]	cell viability [15] [%]	cell viability [16] [%]	cell viability [17] [%]	cell viability [18] [%]	cell viability [19] [%]	cell viability [20] [%]	cell viability [21] [%]	cell viability [22] [%]	cell viability [23] [%]	cell viability [24] [%]	cell viability [25] [%]	cell viability [26] [%]	cell viability [27] [%]	cell viability [28] [%]	cell viability [29] [%]	cell viability [30] [%]	cell viability [31] [%]	cell viability [32] [%]	cell viability [33] [%]
O=C(Nc1ncc(SCCN2CCCC2)s1)[C@]1(c2ccc([S+](=O)([O-])C3CC3)cc2)C[C@H]1C1CCCCC1	131	111	120	124	111	108	109	63.2	98.9	73.9	27.5	113	117	126	123	120	126	115	71.2	123	114	41.8	129	106	120	118	117	117	138	51.5	110	105	52.5
CN1\N=C(N)/C2=C[N]([C@@H]3O[C@H](CO[P](O)(O)=O)[C@@H](O)[C@H]3O)C4=C2C1=NC=N4	77.9	79.8	42.7	45.6	38	25.8	13.2	8.14	4.15	2.69	2.9	107	109	63.8	65.2	50.3	35.3	16.7	7.7	6.79	3.71	3.23	88.7	76	40	38.9	21.1	13.4	8.31	6.58	4.28	3.22	2.94
CNCc1ccc(-c2[nH]c3cc(F)cc4c3c2CCNC4=O)cc1	101	103	126	148	122	118	117	133	155	141	109	106	118	128	123	134	127	143	152	163	153	128	94.5	110	115	115	95.7	130	126	136	115	120	106
COc1ccc(C2Sc3ccccc3N(CCN(C)C)C(=O)C2OC(C)=O)cc1 (centres undefined)	99.2	111	106	115	113	117	115	112	106	112	108	113	109	86	99.4	103	111	111	105	99.2	110	69	87.2	112	99.6	101	107	115	107	109	124	95.5	85.8
O=C\1N(N\C=C1[N]2C=CN=N2)C3=NC=NC(=C3)N4CCOCC4	58.1	74.2	66.2	69.5	56	46.9	20.1	36.9	21.7	15.8	12.1	56.6	102	108	95.5	46.8	28.6	13.6	13.3	19.2	14.5	16.8	52.3	77.4	74.1	69.3	66.5	42.8	17.3	32.8	19.5	19.9	16.7
Cn1cc(/C=C2\C(=O)Nc3cccnc32)c2ccccc21	90.8	104	113	117	125	121	115	111	112	44.8	30	92.5	92.5	122	114	99.3	105	108	115	98.4	31.8	21.9	105	106	124	101	122	119	114	119	91.7	30.2	28
CCC(=O)N[C@H]1CC[C@H](C(=O)N(C)c2ccc(-c3nc4ccccc4o3)cc2)C1	75.9	68	99.7	94.2	99.8	104	101	89	110	115	96.4	83.3	51.8	78.4	89.5	84.7	101	99.9	82.2	74.7	74.2	40	91.9	51.8	83.5	98.9	98.4	97	96	102	94.7	91	45.3
C[C@@H](NC(=O)c1ncnc(N)c1Cl)c1ncc(C(=O)Nc2cc(C(F)(F)F)c(Cl)cn2)s1	–	–	–	–	–	–	–	–	–	–	–	113	119	105	127	125	126	127	121	121	112	106	123	128	112	126	139	134	135	137	131	119	96.2
C=CC(=O)Nc1cccc(Nc2nc(NC3CCC(N(C)C)CC3)nc3c2ncn3C(C)C)c1 (centres undefined)	107	106	112	112	105	95.9	81.9	40.6	9.48	4.66	4.5	116	107	101	113	117	106	86.9	70.1	10.8	4.33	3.98	105	111	109	110	115	107	82.5	40.9	9.22	3.79	3.4
CC1(C)CNc2cc(NC(=O)c3cccnc3NCc3ccncc3)ccc21	118	118	121	112	102	104	92.4	101	96.3	93	13.2	85.4	70.9	87.7	79.4	79.7	79.4	73.9	75.4	78.1	70.1	12.9	111	112	105	128	125	100	102	91.1	79.2	90.6	7.67
COc1ccc([C@@H]2CC(=O)c3c(O)cc(O[C@@H]4O[C@H](CO[C@@H]5O[C@@H](C)[C@H](O)[C@@H](O)[C@H]5O)[C@@H](O)[C@H](O)[C@H]4O)cc3O2)cc1O	99.2	101	93.9	93.2	113	48	110	116	125	108	123	105	86.6	98.4	93.4	112	58.5	107	91.3	107	113	120	112	107	106	114	110	54.7	127	114	132	137	119
CN1\C(=C(\O)C2=C(C=CC=C2)[S+]1([O-])=O)C(=O)NC3=CC=CC=N3	92.2	81.9	96.9	75	91.9	114	7.98	67.2	112	63.3	64.9	90	95	97.8	107	106	117	6.64	54.8	93.2	54.9	56.6	98.4	86.6	112	107	123	109	8.39	51.8	96.6	59.8	74.5
CN(C)CCN(C)C(=O)c1ccc(NC(=O)Nc2ccc(-c3nc(N4CCOCC4)c4ccn(CC(F)(F)F)c4n3)cc2)cc1	104	100	120	111	88	63.9	65.8	48.6	52.7	50.2	54.3	106	81.7	96.2	117	73.7	48	49.2	45.9	45.8	43.6	48.7	112	110	112	113	87.6	75.5	63.2	60.1	56.6	51	53.3
CC(C)C[C@H](NC(=O)CNC(=O)c1cc(Cl)ccc1Cl)B(O)O	86.3	77.4	109	19.6	107	12.5	7.52	6.82	6.78	4.58	3.36	88.4	85.9	103	15.2	113	11.4	7.76	5.7	4.81	3.3	2.05	83.2	68.2	90.6	16.8	107	17.6	7.97	6.58	5.53	4.01	2.9
Cn1c(=O)n(-c2ccc(C(C)(C)C#N)cc2)c2c3cc(-c4cnc5ccccc5c4)ccc3ncc21	94	104	96	86.7	82	66.3	50.5	38.8	28.3	22.1	22.3	68	56.2	64.5	64.3	46	33.6	27.7	15	8.98	9.61	6.98	98.6	89	89.8	86.1	65.7	57.9	51.4	35	24.2	13.2	14.4
